Here are results for 15 compounds from patent publication US20250230151A1, “COMPOUNDS FOR CANCERS DRIVEN BY BRAF MUTATION” (THE BOARD OF TRUSTEES OF THE UNIVERSITY OF ILLINOIS, priority 2021, published 2025).

One series has as its system A375 cells. The series can be described thus: 72-hour cell viability assay (Alamar Blue), A375. The class given is cell-based, human. To be noted: for IC50: 72-hour incubation, Alamar Blue, V600E BRAF; for Emax: A-375, A375, 72-hour incubation. Here is the method:
Cell Culture and reagents. All cell lines were grown in a 37° C., 5% CO2, humidified environment, in media containing 1% penicillin/streptomycin. Cell culture conditions are as follows: MDCK cells transfected with MDR1 (or ABCB1) were obtained from the Netherlands Cancer Institute (Amsterdam, The Netherlands) and maintained in DMEM with 10% fetal bovine serum (FBS, Gemini). Traditional cell lines A375, CHL-1, B16F10, and U118MG were grown in DMEM with 10% FBS, SK-MEL-28, U87 and T98G in EMEM with 10% FBS, AM-38 in EMEM with 20% HI-FBS (Gibco), HT29 in McCoy's 5A with 10% FBS, HCT116 in RPMI with 10% FBS. Compounds were dissolved in DMSO (1% final concentration, Sigma-Aldrich) for cell culture studies.
Cell viability assays. Cells were harvested, seeded in a 96-well plate and allowed to adhere overnight. Compound was added to each well in DMSO (1% final concentration). Cells were incubated for 72 hours before viability was assessed by the Alamar Blue Assay. Raptinal ([…]) was used as a dead control.

For another series, the target named is T1, P-gp (Homo sapiens, UniProt P08183).
T1 construct: host or cells: MDCK (MDR1-MDCK)
The series can be described thus: MDR1-MDCK P-gp transwell bidirectional transport assay. The class given is in vitro ADME. The note with it: 10 μM, 90 min; for Papp A→B at 90 min, 10 µM / Papp B→A at 90 min, 10 µM / efflux ratio at 90 min, 10 µM: dog, MDCK-MDR1, MDR1-MDCK; for efflux ratio at 90 min, 10 µM: read-out: ER (efflux ratio) (converted). Here is the method:
A novel compound collection composed of complex and diverse compounds derived from natural products, termed “Complexity-to-Diversity Collection” was employed. […] The CtD compounds were evaluated by the efflux pump and their permeability using the P-gp transwell assay using adapted and optimized known protocols. Compound transport across epithelial cells overexpressing P-gp from basolateral-to-apical and apical-to-basolateral directions were quantified to calculate permeability and efflux ratio.
P-gp transwell bidirectional transport assays. Unless noted otherwise, the transport assay was performed in triplicate in batches of 16 or 24 test compounds, with each batch containing quinidine as a substrate control and propranolol as a non-substrate control. MDR1-MDCK cells were plated at a density of 300,000 cells/cm^2 onto 96-well Falcon™ Multiwell Insert System with 1 µm pore polycarbonate filters with angled-bottom receiver plates (Coming) and were fed with the cell growth medium on day 2.
The donor solution was prepared by adding 1 mM DMSO stocks of compounds to make the final concentration […], and the receiver solution was prepared with equivalent volume of DMSO to make 1% DMSO in final assay chamber volumes.
After 80-96 hours since seeding, the growth media on both sides was aspirated. To the transwell plate (apical side), 50 μL of receiver and donor solutions prepared on a 96-well plate were added, and it was placed on top of a separate angled-bottom 96-well plate (basolateral side) containing 260 μL of receiver and donor solutions.
Following 90 minutes of incubation at 37° C. with shaking at 90 rpm, 20 μL aliquot of samples were taken from both the donor and receiver chambers, and the apical and basolateral sides. Aliquots of 4 test compounds were pooled for each category: apical-donor, apical-receiver, basolateral-donor, basolateral-receiver. To measure CO and mass balance, initial donor samples from both apical and basolateral side were set aside from the assay plate. Acetonitrile twice the volume of pooled samples was added and mixed thoroughly, and precipitated proteins were removed by centrifugation at 20,000 r.c.f for 10 minutes.
To ascertain the MDCK monolayer integrity, the solution on apical side contained 100 µM Lucifer Yellow (Millipore-Sigma). After 90 minutes of compound transport, Lucifer Yellow concentration in the basal well was measured using SpectraMax M3 (Molecular Devices) set to an excitation wavelength of 430 nm and an emission wavelength of 540 nm.
Samples were analyzed with the 5500 QTRAP LC/MS/MS system (AB Sciex) with a 1200 series HPLC system (Agilent Technologies) including a degasser, an autosampler, and a binary pump. The liquid chromatography separation was performed on an Agilent SB-Aq column (4.6×50 mm, 5 μm) (Agilent Technologies) with mobile phase A (0.1% formic acid in water) and mobile phase B (0.1% formic acid in acetonitrile). The flow rate was 0.3 ml min^−1. The linear gradient was optimized for each compound. The autosampler was set at 5° C. The injection volume was 15 μL. Mass spectra were acquired with both positive electrospray ionization at the ion spray voltage of 5,500 V and negative electrospray ionization at the ion spray voltage of −4,500 V. The source temperature was 450° C. The curtain gas, ion source gas 1, and ion source gas 2 were 33, 50 and 65, respectively. Multiple reaction monitoring was used to quantify metabolites.
Efflux data calculations.

As usually defined, the IC50 is the concentration at which inhibition is half-maximal. By Papp A→B is commonly meant how fast a substance crosses the layer from the apical side. A high value points to ready permeation. One may read the Papp B→A as how fast a substance crosses the layer from the basolateral side.

Some results are limits rather than exact numbers.

T1 sequence (P08183 whole entry): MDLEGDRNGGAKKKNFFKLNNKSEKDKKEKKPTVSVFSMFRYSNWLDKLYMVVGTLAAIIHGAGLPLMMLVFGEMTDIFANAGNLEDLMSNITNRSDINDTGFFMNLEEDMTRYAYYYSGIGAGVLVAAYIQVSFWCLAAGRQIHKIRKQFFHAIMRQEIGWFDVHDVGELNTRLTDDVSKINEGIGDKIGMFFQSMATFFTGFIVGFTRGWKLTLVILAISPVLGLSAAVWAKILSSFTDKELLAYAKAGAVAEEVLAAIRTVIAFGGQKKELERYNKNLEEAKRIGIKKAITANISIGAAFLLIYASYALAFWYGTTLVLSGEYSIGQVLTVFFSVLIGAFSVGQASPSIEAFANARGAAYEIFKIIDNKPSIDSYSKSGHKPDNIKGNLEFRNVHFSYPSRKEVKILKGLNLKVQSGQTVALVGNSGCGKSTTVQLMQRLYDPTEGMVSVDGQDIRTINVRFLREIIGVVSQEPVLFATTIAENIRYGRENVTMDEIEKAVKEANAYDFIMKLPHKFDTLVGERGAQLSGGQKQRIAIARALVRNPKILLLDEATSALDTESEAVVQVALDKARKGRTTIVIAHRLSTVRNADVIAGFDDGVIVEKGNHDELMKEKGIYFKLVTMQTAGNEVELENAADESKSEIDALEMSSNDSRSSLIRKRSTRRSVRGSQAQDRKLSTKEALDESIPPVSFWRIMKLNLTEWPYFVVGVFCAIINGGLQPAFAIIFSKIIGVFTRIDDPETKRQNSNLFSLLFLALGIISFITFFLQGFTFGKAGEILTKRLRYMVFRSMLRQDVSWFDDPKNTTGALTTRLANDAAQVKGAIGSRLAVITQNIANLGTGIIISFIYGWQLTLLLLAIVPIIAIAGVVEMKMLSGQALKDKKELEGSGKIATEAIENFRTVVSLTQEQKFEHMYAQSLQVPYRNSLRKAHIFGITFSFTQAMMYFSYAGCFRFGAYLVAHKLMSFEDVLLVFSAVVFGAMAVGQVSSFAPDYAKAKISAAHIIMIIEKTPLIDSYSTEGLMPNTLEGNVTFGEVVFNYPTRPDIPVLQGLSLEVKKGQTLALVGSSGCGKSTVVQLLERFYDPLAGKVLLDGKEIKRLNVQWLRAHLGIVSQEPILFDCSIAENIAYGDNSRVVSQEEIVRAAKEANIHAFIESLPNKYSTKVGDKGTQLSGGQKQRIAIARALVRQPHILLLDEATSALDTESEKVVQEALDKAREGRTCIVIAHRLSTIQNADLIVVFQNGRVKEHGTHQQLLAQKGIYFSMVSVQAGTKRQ

In the case of `CC(C)(C)c1nc(-c2cccc(NS(=O)(=O)c3c(F)cccc3F)c2F)c(-c2ccnc(Nc3ccc(C(=O)O)cc3)n2)s1` [6-77, 4-((4-(2-(tert-butyl)-4-(3-((2,6-difluorophenyl)sulfonamido)-2-fluorophenyl)thiazol-5-yl)pyrimidin-2-yl)amino)benzoic acid], in the series on A375 cells (Homo sapiens, A-375, 72 h), the IC50 is greater than 1000 nM. At P-gp, the Papp A→B at 90 min, 10 µM came to 1.58 ± 0.335 ×10⁻⁶ cm/s; the Papp B→A at 90 min, 10 µM was determined as 1.45 ± 0.077 ×10⁻⁶ cm/s; the efflux ratio at 90 min, 10 µM is 0.984 ± 0.164.
The compound `CC(C)(C)c1nc(-c2cccc(NS(=O)(=O)c3c(F)cccc3F)c2F)c(-c2ccnc(NCCCCC(=O)O)n2)s1` [6-83, 5-((4-(2-(tert-butyl)-4-(3-((2,6-difluorophenyl)sulfonamido)-2-fluorophenyl)thiazol-5-yl)pyrimidin-2-yl)amino)pentanoic acid] displayed an IC50 with A375 cells of 115 ± 9.85 nM. Further, the IC50 in the series on A375 cells (Homo sapiens, A-375, 72 h) was found to be 115 nM. Besides, the Emax in the series on A375 cells (Homo sapiens) turned out to be 65%. Further, on P-gp (MDR1-MDCK), the “Papp A-B” value amounted to 1.089 ± 0.097 ×10⁻⁶ cm/s and the “Papp B-A” value turned out to be 2.165 ± 0.371 ×10⁻⁶ cm/s. Besides, at P-gp, the Papp A→B at 90 min, 10 µM turned out to be 1.09 ± 0.097 ×10⁻⁶ cm/s; the Papp B→A at 90 min, 10 µM was determined as 2.17 ± 0.371 ×10⁻⁶ cm/s; the efflux ratio at 90 min, 10 µM is 1.96 ± 0.22.
In turn, `CC(C)(C)c1nc(-c2cccc(NS(=O)(=O)c3c(F)cccc3F)c2F)c(-c2ccnc(N[C@H]3CC[C@@H](C(=O)O)CC3)n2)s1` [6-85, (1s,4s)-4-((4-(2-(tert-butyl)-4-(3-((2,6-difluorophenyl)sulfonamido)-2-fluorophenyl)thiazol-5-yl)pyrimidin-2-yl)amino)cyclohexane-1-carboxylic acid] showed an IC50 in the series on A375 cells (Homo sapiens, A-375, 72 h) of 474 ± 11.8 nM. For the same compound, at P-gp, the Papp A→B at 90 min, 10 µM came out at 0.709 ± 0.045 ×10⁻⁶ cm/s; the Papp B→A at 90 min, 10 µM worked out at 2.26 ± 0.32 ×10⁻⁶ cm/s; the efflux ratio at 90 min, 10 µM is 3.22 ± 0.54.
For `CC(C)(C)c1nc(-c2cccc(NS(=O)(=O)c3c(F)cccc3F)c2F)c(-c2ccnc(NCCCC(=O)O)n2)s1` [6-86, 4-((4-(2-(tert-butyl)-4-(3-((2,6-difluorophenyl)sulfonamido)-2-fluorophenyl)thiazol-5-yl)pyrimidin-2-yl)amino)butanoic acid], the IC50 in the series with A375 cells stood at 628 ± 105 nM. The same compound yielded an IC50 with A375 cells (Homo sapiens, A-375, 72 h) of 628 ± 105 nM. In the series with A375 cells (Homo sapiens), this compound returned an Emax of 65%. Moreover, the “ER (efflux ratio)” value on P-gp (MDR1-MDCK) worked out at 0.607 ± 0.16. Further, at P-gp, the Papp A→B at 90 min, 10 µM was found to be 0.844 ± 0.214 ×10⁻⁶ cm/s; the Papp B→A at 90 min, 10 µM was determined as 0.445 ± 0.04 ×10⁻⁶ cm/s; the efflux ratio at 90 min, 10 µM is 0.61 ± 0.16.
Take `CC(C)(C)c1nc(-c2cccc(NS(=O)(=O)c3c(F)cccc3F)c2F)c(-c2ccnc(N[C@H]3CC[C@H](C(=O)O)CC3)n2)s1` [6-89, (1r,4r)-4-((4-(2-(tert-butyl)-4-(3-((2,6-difluorophenyl)sulfonamido)-2-fluorophenyl)thiazol-5-yl)pyrimidin-2-yl)amino)cyclohexane-1-carboxylic acid]: the midpoint of inhibition with A375 cells, the IC50, lay at 166 ± 4.09 nM. In the series on A375 cells (Homo sapiens, A-375, 72 h), this compound came in with an IC50 of 166 ± 4.09 nM. For the same compound, on P-gp (MDR1-MDCK), the “Papp A-B” value was 2.237 ± 0.126 ×10⁻⁶ cm/s and the “Papp B-A” value worked out at 1.251 ± 0.436 ×10⁻⁶ cm/s. Also, at P-gp, the Papp A→B at 90 min, 10 µM was 2.24 ± 0.126 ×10⁻⁶ cm/s; the Papp B→A at 90 min, 10 µM is 1.25 ± 0.436 ×10⁻⁶ cm/s; the efflux ratio at 90 min, 10 µM is 0.56 ± 0.18.
In the series on A375 cells (Homo sapiens, A-375, 72 h), `CC(C)(C)c1nc(-c2cccc(NS(=O)(=O)c3c(F)cccc3F)c2F)c(-c2ccnc(N[C@@H]3CC[C@H](C(=O)O)C3)n2)s1` [6-91, (1S,3R)-3-((4-(2-(tert-butyl)-4-(3-((2,6-difluorophenyl)sulfonamido)-2-fluorophenyl)thiazol-5-yl)pyrimidin-2-yl)amino)cyclopentane-1-carboxylic acid] showed an IC50 greater than 1000 nM. At P-gp, the Papp A→B at 90 min, 10 µM worked out at 0.493 ± 0.148 ×10⁻⁶ cm/s; the Papp B→A at 90 min, 10 µM is 0.626 ± 0.238 ×10⁻⁶ cm/s; the efflux ratio at 90 min, 10 µM is 1.3 ± 0.38.
In turn, `CC(C)(C)c1nc(-c2cccc(NS(=O)(=O)c3c(F)cccc3F)c2F)c(-c2ccnc(CCC(=O)O)n2)s1` [6-97, 3-(4-(2-(tert-butyl)-4-(3-((2,6-difluorophenyl)sulfonamido)-2-fluorophenyl)thiazol-5-yl)pyrimidin-2-yl)propanoic acid] yielded an IC50 in the series with A375 cells (Homo sapiens, A-375, 72 h) greater than 1000 nM. Besides, at P-gp, the Papp A→B at 90 min, 10 µM turned out to be 0.868 ± 0.021 ×10⁻⁶ cm/s; the Papp B→A at 90 min, 10 µM was 0.741 ± 0.156 ×10⁻⁶ cm/s; the efflux ratio at 90 min, 10 µM is 0.86 ± 0.19.
In the series with A375 cells (Homo sapiens, A-375, 72 h), `CC(C)(C)c1nc(-c2cccc(NS(=O)(=O)c3c(F)cccc3F)c2F)c(-c2ccnc(NCCCCc3nnn[nH]3)n2)s1` [6-121, N-(3-(5-(2-((4-(1H-tetrazol-5-yl)butyl)amino)pyrimidin-4-yl)-2-(tert-butyl)thiazol-4-yl)-2-fluorophenyl)-2,6-difluorobenzenesulfonamide] came in with an IC50 of 1270 ± 54.4 nM. Besides, the Emax in the series on A375 cells (Homo sapiens) is 60%. At P-gp, the Papp B→A at 90 min, 10 µM was 0.325 ± 0.124 ×10⁻⁶ cm/s.
Compound `CC(C)(C)c1nc(-c2cccc(NS(=O)(=O)c3cc(C(F)(F)F)ccc3C(F)(F)F)c2F)c(-c2ccnc(N)n2)s1` [6-163, N-(3-(5-(2-aminopyrimidin-4-yl)-2-(tert-butyl)thiazol-4-yl)-2-fluorophenyl)-2,5-bis(trifluoromethyl)benzenesulfonamide] came in with an IC50 with A375 cells (Homo sapiens, A-375, 72 h) greater than 3000 nM.
On to `CC(C)(C)c1nc(-c2cccc(NS(=O)(=O)c3ccc(F)cc3C(F)(F)F)c2F)c(-c2ccnc(N)n2)s1` [6-166, N-(3-(5-(2-aminopyrimidin-4-yl)-2-(tert-butyl)thiazol-4-yl)-2-fluorophenyl)-4-fluoro-2-(trifluoromethyl)benzenesulfonamide], for which, in the series with A375 cells (Homo sapiens, A-375, 72 h), the IC50 was greater than 3000 nM.
`CC(C)(C)c1nc(-c2c(F)ccc(NS(=O)(=O)c3ccc(F)cc3C(F)(F)F)c2F)c(-c2ccnc(N)n2)s1` [6-167, N-(3-(5-(2-aminopyrimidin-4-yl)-2-(tert-butyl)thiazol-4-yl)-2,4-difluorophenyl)-4-fluoro-2-(trifluoromethyl)benzenesulfonamide] yielded a concentration for half-maximal inhibition (IC50) in the series with A375 cells (Homo sapiens, A-375, 72 h) greater than 3000 nM.
The same measure, in the same setting: to `CC(C)(C)c1nc(-c2cccc(NS(=O)(=O)c3ccc(F)cc3C(F)(F)F)c2F)c(-c2ccnc(NCCCCC(=O)O)n2)s1` [6-181, 5-((4-(2-(tert-butyl)-4-(2-fluoro-3-((4-fluoro-2-(trifluoromethyl)phenyl)sulfonamido)phenyl)thiazol-yl)pyrimidin-2-yl)amino)pentanoic acid] belongs greater than 50000 nM.
The compound `CC(C)(C)c1nc(-c2cccc(NS(=O)(=O)c3c(F)cccc3F)c2F)c(-c2ccnc(CCCCCC(=O)O)n2)s1` [6-193, 6-(4-(2-(tert-butyl)-4-(3-((2,6-difluorophenyl)sulfonamido)-2-fluorophenyl)thiazol-5-yl)pyrimidin-2-yl)hexanoic acid] yielded an IC50 with A375 cells (Homo sapiens, A-375, 72 h) of 1750 ± 21.9 nM. The compound also displayed an Emax with A375 cells (Homo sapiens) of 60%.
`CC(C)NCC(O)COc1cccc2ccccc12` (stereo not shown) [Propranolol, reference compound]: the efflux ratio at 90 min, 10 µM at P-gp is 1.18.
In the case of `C=C[C@H]1C[N@@]2CC[C@H]1C[C@@H]2[C@@H](O)c1ccnc2ccc(OC)cc12` [Quinidine, reference compound], the efflux ratio at 90 min, 10 µM at P-gp was 8.09.
